In brackets after ≈: the same amount, converted by molar mass.
Experiments:
Type in all cases: functional
[1] = tested on: Klebsiella pneumoniae; experiment: Antibacterial activity against Klebsiella pneumoniae GN69 by agar dilution method
[2] = tested on: Staphylococcus aureus; experiment: Antibacterial activity against carbapenem and methicillin-resistant Staphylococcus aureus M126HR by agar dilution method
[3] = tested on: Moraxella catarrhalis; experiment: Antibacterial activity against Moraxella catarrhalis W-0500 by agar dilution method
[4] = tested on: Staphylococcus aureus; experiment: Antibacterial activity against Staphylococcus aureus 209P JC1 by agar dilution method
[5] = tested on: Streptococcus pneumoniae; experiment: Antibacterial activity against penicillin-resistant Streptococcus pneumoniae KK133 by agar dilution method
[6] = tested on: Staphylococcus aureus; experiment: Antibacterial activity against methicillin-resistant Staphylococcus aureus M126 by agar dilution method
[7] = tested on: Escherichia coli; experiment: Antibacterial activity against Escherichia coli NIHJ JC2 by agar dilution method
[8] = tested on: Haemophilus influenzae; experiment: Antibacterial activity against beta-lactamase-negative ampicillin-resistant Haemophilus influenzae 870 by agar dilution method

Structure (SMILES)	MIC [1]	MIC [2]	MIC [3]	MIC [4]	MIC [5]	MIC [6]	MIC [7]	MIC [8]
C[C@@H](O)[C@H]1C(=O)N2C(C(=O)[O-])=C(c3cn4cnc(C(=O)c5ccc[n+](CCS(C)(=O)=O)c5)c4s3)[C@H](C)[C@H]12	0.5 µg/mL (≈ 0.918 µM)	4 µg/mL (≈ 7.34 µM)	0.016 µg/mL (≈ 0.0294 µM)	≤ 0.008 µg/mL	0.031 µg/mL (≈ 0.0569 µM)	1 µg/mL (≈ 1.84 µM)	0.5 µg/mL (≈ 0.918 µM)	0.063 µg/mL (≈ 0.116 µM)
C[C@@H](O)[C@H]1C(=O)N2C(C(=O)[O-])=C(c3cn4c(Cl)nc(C(=O)c5ccc[n+](CC(N)=O)c5)c4s3)[C@H](C)[C@H]12	2 µg/mL (≈ 3.77 µM)	2 µg/mL (≈ 3.77 µM)	0.016 µg/mL (≈ 0.0302 µM)	0.008 µg/mL (≈ 0.0151 µM)	0.031 µg/mL (≈ 0.0585 µM)	0.5 µg/mL (≈ 0.943 µM)	1 µg/mL (≈ 1.89 µM)	0.063 µg/mL (≈ 0.119 µM)
C[C@@H](O)[C@H]1C(=O)N2C(C(=O)O)=C(c3cn4cnc(C(=O)c5cn(C)c6ccccc56)c4s3)[C@H](C)[C@H]12	8 µg/mL (≈ 16.3 µM)	8 µg/mL (≈ 16.3 µM)	0.016 µg/mL (≈ 0.0326 µM)	0.008 µg/mL (≈ 0.0163 µM)	0.125 µg/mL (≈ 0.255 µM)	0.031 µg/mL (≈ 0.0632 µM)	4 µg/mL (≈ 8.15 µM)	0.125 µg/mL (≈ 0.255 µM)
C[C@@H](O)[C@H]1C(=O)N2C(C(=O)[O-])=C(c3cn4cnc(C(=O)c5ccc[n+](C)c5)c4s3)[C@H](C)[C@H]12	0.063 µg/mL (≈ 0.139 µM)	4 µg/mL (≈ 8.84 µM)	0.031 µg/mL (≈ 0.0685 µM)	≤ 0.008 µg/mL	0.031 µg/mL (≈ 0.0685 µM)	1 µg/mL (≈ 2.21 µM)	0.063 µg/mL (≈ 0.139 µM)	0.063 µg/mL (≈ 0.139 µM)
C[C@@H](O)[C@H]1C(=O)N2C(C(=O)O)=C(c3cn4cnc(C(=O)c5cccnc5)c4s3)[C@H](C)[C@H]12	2 µg/mL (≈ 4.56 µM)	4 µg/mL (≈ 9.12 µM)	0.016 µg/mL (≈ 0.0365 µM)	≤ 0.008 µg/mL	0.031 µg/mL (≈ 0.0707 µM)	1 µg/mL (≈ 2.28 µM)	1 µg/mL (≈ 2.28 µM)	0.031 µg/mL (≈ 0.0707 µM)
CC(=O)C[n+]1cccc(C(=O)c2ncn3cc(C4=C(C(=O)[O-])N5C(=O)[C@H]([C@@H](C)O)[C@H]5[C@H]4C)sc23)c1	0.25 µg/mL (≈ 0.506 µM)	4 µg/mL (≈ 8.09 µM)	0.031 µg/mL (≈ 0.0627 µM)	0.016 µg/mL (≈ 0.0324 µM)	0.063 µg/mL (≈ 0.127 µM)	1 µg/mL (≈ 2.02 µM)	0.125 µg/mL (≈ 0.253 µM)	0.063 µg/mL (≈ 0.127 µM)
CCOC(=O)C[n+]1cccc(C(=O)c2ncn3cc(C4=C(C(=O)[O-])N5C(=O)[C@H]([C@@H](C)O)[C@H]5[C@H]4C)sc23)c1	0.063 µg/mL (≈ 0.12 µM)	8 µg/mL (≈ 15.3 µM)	0.031 µg/mL (≈ 0.0591 µM)	0.016 µg/mL (≈ 0.0305 µM)	0.063 µg/mL (≈ 0.12 µM)	2 µg/mL (≈ 3.81 µM)	0.031 µg/mL (≈ 0.0591 µM)	0.063 µg/mL (≈ 0.12 µM)
C[C@@H](O)[C@H]1C(=O)N2C(C(=O)[O-])=C(c3cn4cnc(C(=O)c5ccc[n+](CC(=O)O)c5)c4s3)[C@H](C)[C@H]12	0.063 µg/mL (≈ 0.127 µM)	8 µg/mL (≈ 16.1 µM)	0.031 µg/mL (≈ 0.0624 µM)	0.031 µg/mL (≈ 0.0624 µM)	0.063 µg/mL (≈ 0.127 µM)	2 µg/mL (≈ 4.03 µM)	0.031 µg/mL (≈ 0.0624 µM)	0.063 µg/mL (≈ 0.127 µM)
COCc1nc(C(=O)c2ccc[n+](CC(N)=O)c2)c2sc(C3=C(C(=O)[O-])N4C(=O)[C@H]([C@@H](C)O)[C@H]4[C@H]3C)cn12	4 µg/mL (≈ 7.41 µM)	4 µg/mL (≈ 7.41 µM)	0.031 µg/mL (≈ 0.0575 µM)	0.031 µg/mL (≈ 0.0575 µM)	0.063 µg/mL (≈ 0.117 µM)	2 µg/mL (≈ 3.71 µM)	8 µg/mL (≈ 14.8 µM)	0.063 µg/mL (≈ 0.117 µM)
C[C@@H](O)[C@H]1C(=O)N2C(C(=O)O)=C(c3cn4cnc(C(=O)[C@@H]5C[C@@H](O)CN5)c4s3)[C@H](C)[C@H]12	0.125 µg/mL (≈ 0.28 µM)	4 µg/mL (≈ 8.96 µM)	0.031 µg/mL (≈ 0.0694 µM)	0.016 µg/mL (≈ 0.0358 µM)	0.063 µg/mL (≈ 0.141 µM)	1 µg/mL (≈ 2.24 µM)	0.063 µg/mL (≈ 0.141 µM)	0.125 µg/mL (≈ 0.28 µM)
C[C@@H](O)[C@H]1C(=O)N2C(C(=O)[O-])=C(c3cn4c(N5CCOCC5)nc(C(=O)c5ccc[n+](CC(N)=O)c5)c4s3)[C@H](C)[C@H]12	16 µg/mL (≈ 27.6 µM)	8 µg/mL (≈ 13.8 µM)	0.063 µg/mL (≈ 0.109 µM)	0.031 µg/mL (≈ 0.0534 µM)	0.063 µg/mL (≈ 0.109 µM)	2 µg/mL (≈ 3.44 µM)	16 µg/mL (≈ 27.6 µM)	0.125 µg/mL (≈ 0.215 µM)
C[C@@H](O)[C@H]1C(=O)N2C(C(=O)O)=C(c3cn4cnc(C(=O)c5cccs5)c4s3)[C@H](C)[C@H]12	4 µg/mL (≈ 9.02 µM)	4 µg/mL (≈ 9.02 µM)	0.016 µg/mL (≈ 0.0361 µM)	≤ 0.008 µg/mL	0.125 µg/mL (≈ 0.282 µM)	0.031 µg/mL (≈ 0.0699 µM)	2 µg/mL (≈ 4.51 µM)	0.125 µg/mL (≈ 0.282 µM)
C[C@@H](O)[C@H]1C(=O)N2C(C(=O)[O-])=C(c3cn4cnc(C(=O)c5ccc[n+](CCN(C)C)c5)c4s3)[C@H](C)[C@H]12	0.25 µg/mL (≈ 0.491 µM)	4 µg/mL (≈ 7.85 µM)	0.031 µg/mL (≈ 0.0608 µM)	≤ 0.008 µg/mL	0.031 µg/mL (≈ 0.0608 µM)	1 µg/mL (≈ 1.96 µM)	0.125 µg/mL (≈ 0.245 µM)	0.063 µg/mL (≈ 0.124 µM)
CSc1c2sc(C3=C(C(=O)[O-])N4C(=O)[C@H]([C@@H](C)O)[C@H]4[C@H]3C)cn2c[n+]1CC(N)=O	0.031 µg/mL (≈ 0.071 µM)	4 µg/mL (≈ 9.16 µM)	0.031 µg/mL (≈ 0.071 µM)	0.008 µg/mL (≈ 0.0183 µM)	0.031 µg/mL (≈ 0.071 µM)	1 µg/mL (≈ 2.29 µM)	0.016 µg/mL (≈ 0.0367 µM)	0.5 µg/mL (≈ 1.15 µM)

From ChEMBL document CHEMBL1144513, “Synthesis and SAR study of novel 7-(pyridinium-3-yl)-carbonyl imidazo[5,1-b]thiazol-2-yl carbapenems” (2007)
